The text below walks through data of EP0209274A2, “Furanone derivatives” (ELI LILLY AND COMPANY, priority 1985, dated 1987).

The target of experiment [1] is Pancreatic phospholipase A2 (Homo sapiens, UniProt P04054). Kind of experiment: Phospholipase A2 (PLA2) Assay. It counts as biochemical. As to conditions: 30 µg/ml test compound; inhibition of 14C-free fatty acid formation. As for the experimental part: The assay buffer contained 10 mM Tris-HCl buffer, pH 8.0, 100 mM NaCl, 1 mM CaCl2 and 1 mg/ml of bovine serum albumin. A toluene-ethanol (1:1 v/v) solution of phosphatidiylcholine, L-a-dipalmitoyl-(2-palmitoyl-1-^14C) obtained from New England Nuclear was evaporated to dryness in a flask under nitrogen and the assay buffer was added to give a substrate concentration of 9.0 x 10^-5M (specific activity = 27.7 mCi/mmol). The mixture was sonicated for 5 minutes in a Bransonic 220 Sonication Bath. Pancreatic phospholipase A2 (specific activity = 600 units/mg) was diluted with the assay buffer to give an enzyme concentration of 0.1 mg/ml. […] To initiate the enzyme reaction, 0.1 ml of the mixture containing the substrate was added to the enzyme solution and the reaction mixture was further incubated for 30 minutes at 37°C. The reaction was then terminated by the addition of 20 µl of 1M citric acid.
Pancreatic phospholipase A2, sequence (P04054 23-148): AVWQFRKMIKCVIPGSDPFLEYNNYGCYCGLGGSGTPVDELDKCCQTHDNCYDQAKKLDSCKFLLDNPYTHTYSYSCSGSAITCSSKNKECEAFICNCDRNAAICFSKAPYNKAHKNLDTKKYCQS
Fifty µl of the mixture was added to 10 ml of scintillation fluid [5.88 g of 2,5-diphenyl-oxazole and 118 mg of 1,4-bis(5-phenyloxazol-2-yl)benzene] dissolved in 650 ml of toluene and 350 ml of Triton X-100) and the radioactivity was determined in an Isocap/300 liquid scintillation counter (Searle Analytic Inc., Southfield, Michigan). Another 50 µl of the mixture was applied directly onto the spotting area of a silica gel plate (LK6D, Whatman, Clifton, N.J.) and subjected to thin layer chromatography in a solvent system of ethyl acetate:acetic acid:2,2,4-trimethylpentane:H20 (90:20:50:100, v/v/v). The silica gel on the plate was scraped in 1 cm sections, suspended in 5 ml of the Triton X-100 based scintillation fluid and the radioactivity was determined. Phosphatidylcholine remained at the origin while fatty acids migrated to a few centimeters (2-3 cm) below the solvent front. The percent of ^14C-free fatty acid formed with the test compound added was calculated as compared to the amount formed in control experiments where no test compound was added. […]

The target of another experiment is T1, 5-Lipoxygenase (Cavia porcellus, UniProt A0A286X958).
T1 construct: The PMNL suspension was disrupted by five ½-second pulse sonication; from tissue; host or cells: guinea pig peritoneal polymorphonuclear leukocytes (30,000 x g supernatant of the sonicate)
T1 sequence (A0A286X958 1-674): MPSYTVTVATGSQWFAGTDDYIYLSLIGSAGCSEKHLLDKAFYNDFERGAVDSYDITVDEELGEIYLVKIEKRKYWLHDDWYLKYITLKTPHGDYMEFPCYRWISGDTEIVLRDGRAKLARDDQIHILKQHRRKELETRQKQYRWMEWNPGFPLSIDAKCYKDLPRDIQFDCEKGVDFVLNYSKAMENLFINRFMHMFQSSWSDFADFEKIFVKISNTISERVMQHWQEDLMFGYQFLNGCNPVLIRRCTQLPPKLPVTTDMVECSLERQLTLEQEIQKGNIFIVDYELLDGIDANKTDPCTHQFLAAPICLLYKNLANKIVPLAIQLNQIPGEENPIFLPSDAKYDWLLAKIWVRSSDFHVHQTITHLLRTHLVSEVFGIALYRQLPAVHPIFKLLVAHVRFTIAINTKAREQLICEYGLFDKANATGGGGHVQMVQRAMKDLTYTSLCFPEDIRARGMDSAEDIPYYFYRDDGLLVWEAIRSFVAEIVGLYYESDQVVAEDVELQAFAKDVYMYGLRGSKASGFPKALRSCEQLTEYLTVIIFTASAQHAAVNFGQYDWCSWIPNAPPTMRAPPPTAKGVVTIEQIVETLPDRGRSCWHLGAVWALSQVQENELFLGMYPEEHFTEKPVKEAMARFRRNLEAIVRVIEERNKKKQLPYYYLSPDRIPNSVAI
The experiment is described as follows: 5-Lipoxygenase (5-LPO) Assay. It counts as biochemical, guinea pigs. The settings on record: inhibition of 5-HETE formation; supernatant of guinea pig PMNL sonicate; read-out: 5-LPO IC50 (µg/ml) (converted). As for the experimental part: Ten milliliters of a 2% casein solution were injected intraperitoneally to guinea pigs weighing 250-300 gm. After 16-18 hours, the guinea pigs were killed by suffocation in a carbon dioxide chamber. The peritoneal cavity was infused with 70 ml of saline and 40-50 ml of the fluid were recovered from the cavity. After centrifugation, cell pellets were washed twice in Hank's balanced salt solution (HBSS) without calcium ion.
The cells were then suspended in 5 ml of sodium phosphate buffer, pH 7.1 containing 1 mM EDTA, and 0.1% gelatin. About 20-30 x 10^7 cells were obtained from one guinea pig.
The PMNL suspension was disrupted by five ½-second pulse sonication at the setting of 3 in a Branson Sonifier, Model 350, equipped with a microtip. The sonicates were combined and centrifuged at 30,000 x g for 10 minutes. The supernatant was kept frozen at -70°C until use.
. Enzyme activity was determined by assaying for 5-HETE formatiun by first incubating 0.2 ml of the supernatant obtained from the PMNL sonicate with the test compound, 1 mM CaCl2, 2 mM ATP, and 1 mM GSH for 5 minutes at 37°C. The mixture is treated with 5 pM ^14C-arachidonic acid and incubated at 37°C an additional 10 minutes. The enzyme reaction was then stopped by the addition of 10 µl of 1M citric acid and 10 µl of an alcohol solution containing 20 mg/ml each of indomethacin and butylated hydroxyanisole (BHA). The reaction mixture was spotted (50 µl) on a silica gel plate (Baker TLC plate S1250-PA-19C) and subjected to TLC in a solvent system of ethyl acetate/2,2,4-tri- methylpentane/glacial acetic acid/H20 (90:50:20:100).
The radioactivity of the arachidonic acid and its metabolites (5-HETE and LTB4) was visualized from a developed x-ray film which had been exposed to the TLC plate 1-2 days. The amount of 5-HETE formed was quanti- tated by scraping the silica gel area corresponding to the spot on the x-ray film, and the radioactivity determined in a Isocap/300 liquid scintillation counter (Searle Analytic, Inc.).
The percent inhibition of the formation of 5-HETE was determined for each concentration of test compound tested as compared to a control experiment wherein no test compound was added. The concentration and percent inhibition values were plotted on semi log paper and the concentration in which formation of 5-HETE is inhibited by 50% (ICso) was determined by interpolation.

Experiment [2] concerns the target T2, fatty acid cyclooxygenase (Homo sapiens, UniProt P23219).
T2 construct: Microsomes were prepared from 185 bags of human platelets; from tissue; host or cells: human platelets (solubilized microsomes, then electrofocusing and Sephadex G-200)
Kind of experiment: Fatty Acid Cyclooxygenase (FCO) Assay. It counts as biochemical. As to conditions: 30 µg/ml test compound; inhibition of formation of PGE2; enzyme from human platelets. On the procedure: Microsomes were prepared from 185 bags of human platelets (each bag containing the platelets from one pint of blood prepared using differential centrifugation procedures). The platelets from approximately 60 bags were prepared at one time. Platelet-rich plasma (500 g) was centrifuged at 10,000 x g for 20 minutes, and the platelet pellet was suspended in 100 ml of 0.1M. potassium phosphate buffer, pH 8.0, with a Teflon glass homogenizer and sonicated for 5.0 minutes with a Bronson Sonifier (Model 350) in a rosette flask cooled in ice water. Disrupted platelets were centrifuged 15 minutes at 10,000 x g. The supernatant was centrifuged at 100,000 x g for 90 minutes and the microsomal pellets were homogenized in 25 ml of 20% sucrose containing 1.0% Triton X-100 detergent. After 30 minutes at 4°C, the solubilized microsomes were centrifuged at 100,000 x g for 60 minutes. The yellow supernatant was removed and stored at -70°C.
The solubilized fatty acid cyclooxygenase was applied to a 440 ml electrofocusing column (LKB-8012) containing 1% phisolytes (Brinkman Instruments, Westburgh, NY), pH 2-11, with the cathode at the top of the column. The enzyme was layered onto the column at the appropriate time so that its sucrose concentration was equal to that of the column gradient. This was accomplished by checking the gradient concentration periodically with a sucrose hand refractometer. Electrofocusing was carried out for 16 hours with an initial voltage of 400 V and a final voltage of 900-1,000 volts. Fractions were collected (20 ml) and assayed for PGE2 formation. Active peak fractions were pooled and concentrated by ultrafiltration (XM 100A) to a volume of 3-5 ml.
Active fractions from electrofocusing were applied to a G-200 Sephadex column (2 cm x 46 cm) and eluted with 10 mM potassium phosphate buffer, pH 7.0, in 5 ml fractions. After assay, active fractions were pooled and concentrated to 1.0 ml by ultrafiltration (XM 100A), and kept frozen at -70°C.
Enzyme activity was determined by assaying for PGE2 formation by preincubating the enzyme with 10 mmol/l imidazole phosphate buffer, pH 8.0, 2 mmol/l epinephrine, 2 mmol/1 methemoglobin, and the test compound (30 pg/ml) in a total volume of 0.2 ml for one minute at 37°C. After preincubation, 5 mmol/1 ^14C-arachidonic acid were added and the mixture was incubated an additional 0.5 minutes at 37°C. The enzyme reaction was stopped by the addition of 20 µl of indomethacin (2 mg/ml) in alcohol.
The reaction mixture was spotted (50 pl) on a silica gel (LQ6D) plate and subjected to TLC. The solvent system consisted of chloroform-methanol-glacial acetic acid (90:5:5, v/v/v) and the relative mobilities were PGF2a = 0.235, and PGE2 = 0.47. The silica gel on the plate was scraped in 1 cm sections, suspended in 5 ml of the scintillation fluid [5.88 g of 2,5-diphenyl-oxazole and 118 mg of 1,4-bis(5-phenyloxazol-2-yl)benzene] dissolved in 650 ml of toluene and 350 ml of Triton X-100) and the radioactivity was determined in an Isocap/300 liquid scintillation counter (Searle Analytic, Inc., Southfield, MI). Another 50 µl of the mixture was added to 10 ml of the Triton X-100 based scintillation fluid, and the radioactivity was determined so that the amount of radioactivity recovery from the TLC plate could be ascertained. PGE2 formation for each test compound was determined as a percent of control experiments wherein no test compound was added. Data is expressed in Table I as the percent inhibition of formation of PGE2 at a test compound concentration of 30 pg/ml.

T2 sequence (P23219 24-599): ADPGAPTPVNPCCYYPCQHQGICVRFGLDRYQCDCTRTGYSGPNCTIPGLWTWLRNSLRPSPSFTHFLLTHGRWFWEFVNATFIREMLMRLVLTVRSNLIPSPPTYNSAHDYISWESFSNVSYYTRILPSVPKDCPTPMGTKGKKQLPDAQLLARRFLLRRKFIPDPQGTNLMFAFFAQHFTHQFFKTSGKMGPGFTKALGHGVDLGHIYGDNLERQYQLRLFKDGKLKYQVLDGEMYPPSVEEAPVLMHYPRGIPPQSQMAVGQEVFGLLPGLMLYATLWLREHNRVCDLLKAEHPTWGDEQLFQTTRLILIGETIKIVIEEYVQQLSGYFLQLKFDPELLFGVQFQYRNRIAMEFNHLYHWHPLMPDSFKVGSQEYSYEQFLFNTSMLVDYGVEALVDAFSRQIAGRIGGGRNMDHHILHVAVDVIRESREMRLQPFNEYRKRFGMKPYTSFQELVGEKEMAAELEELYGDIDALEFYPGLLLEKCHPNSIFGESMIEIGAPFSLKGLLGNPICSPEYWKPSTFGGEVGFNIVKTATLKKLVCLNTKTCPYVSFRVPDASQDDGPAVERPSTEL

Take `CCCC/C=C\CCCCCCCCCCC1=CC(=O)OC1O` (stereo not drawn) [Example 21, (Z)-4-(11-hexadecenyl)-5-hydroxy-2(5H)-furanone]: the inhibition (as a rule, how much of the control response was suppressed) at 30 µg/mL in experiment [1] came to 0%. The IC50 on 5-Lipoxygenase is 93 µM.

`C=CCCCCCCCC1=CC(=O)OC1O` (stereo not drawn) [Example 7, 5-Hydroxy-4-(8-nonenyl)-2(5H)-furanone]: the values for the inhibition at 30 µg/mL in experiment [1] and in experiment [2] were 0% and 23%, respectively.

The compound `O=C1C=C(CCCCCOc2ccc3ccccc3c2)C(O)O1` (stereo not drawn) [Example 16, 5-Hydroxy-4-[5-(2-naphthalenyloxy)pentyl]-2(5H)-furanone] had an inhibition at 30 µg/mL in experiment [2] of 27%. At 5-Lipoxygenase, the IC50 is 9.6 µM.

For the compound `O=C1C=C(CCCCOc2ccccc2Cc2ccccc2)C(O)O1` (stereo not drawn) [Example 17, 5-Hydroxy-4-[4-(2-benzylphenoxy)butyl]-2(5H)-furanone], testing at 30 µg/mL in experiment [2] gave an inhibition of 12%. For the same compound, at 5-Lipoxygenase, the IC50 was 8.87 µM.

In the case of `CCCCCC/C=C\CCCCCCCCC1=CC(=O)OC1O` (stereo not drawn) [Example 8, (Z)-4-(9-hexadecenyl)-5-hydroxy-2(5H)-furanone], the results for the inhibition at 30 µg/mL in experiment [1] and in experiment [2] were 36% and 21%, respectively.

As to `CCCCCCCC/C=C\CCCCCCCCCCC1=CC(=O)OC1O` (stereo not drawn) [Example 10, (Z)-4-(11-eicosenyl)-5-hydroxy-2(5H)-furanone], the inhibition at 30 µg/mL in experiment [1] amounted to 26%; in experiment [2], 25%.
